Publication PMC7955127, “Preclinical small molecule WEHI-7326 overcomes drug resistance and elicits response in patient-derived xenograft models of human treatment-refractory tumors” (Cell Death & Disease, 2021)

Tests used:
MDA-MB-231 = assay: Cell cycle analysis (G2/M arrest, PI staining, flow cytometry), MDA-MB-231; type: cell-based; conditions: Homo sapiens, MDA-MB-231, read-out: EC50 (G2/M arrest)
Procedure: Fig. 2 Antimitotic activity of WEHI-7326: cancer cell lines and effects on tubulin polymerization. a Dose-dependent antimitotic activity of WEHI-7326, nocodazol and taxol in tumor cell lines SW480 (colorectal) and MDA-MB-231 (breast). Data are presented as percentage of cells in G2/M after overnight incubation with increasing concentrations of inhibitors and PI staining followed by flow cytometry analysis. Mean average of 3 independent experiments ±SEM. b EC50 values (nM) for G2/M arrest on SW480 and MDA-MB-231 cell lines, given as mean average of 3 independent experiments ±SEM. c Western blot analysis of mitotic arrest in SW480 and MDA-MB-231 cells treated with EC50 concentrations of WEHI-7326 or Paclitaxel as marked by expression of phosho-S10 Histone H3 (p-HH3 S10), at different timepoints post treatment. Expression of β-actin provided as loading control. d Cell cycle analysis of LIM1899 cells 72 h post treatment with increasing concentrations of WEHI-7326 as measured by PI staining for DNA content followed by flow cytometry analysis. Sub-G1 represents apoptotic fractions and >4 N cell fractions of mitotic slippage. e Immunofluorescence confocal microscopy of tubulin polymerization in SW480 cells treated by various agents. […] Representative blot of 3 independent experiments. g Tubulin polymerization was assessed in vitro over time using a fluorescence-based tubulin polymerization assay (BK011P). […] Polymerization was measured by excitation at 360 nm and emission at 420 nm. […]
Cells in log growth were supplemented with fresh medium with either vehicle (control) or compound at the stated final concentrations. […] After 1 h incubation at room temperature in the dark, cells were analyzed on a FACScan (Becton and Dickinson) in CellQuest. The percentage of cells in each phase of the cell cycle was determined using ModFit software (Verity, http://www.vsh.com). Early and late apoptotic responses elicited by WEHI-7326 were assessed using Dead Cell Apoptosis Kit (ThermoFisher Scientific) with Annexin V FITC and PI following manufacturer’s instructions. […]

U87MGΔ2–7 = assay: Cell growth inhibition assay, U87MGΔ2–7; type: cell-based; conditions: Homo sapiens; U87MGΔ2–7, glioblastoma expressing activated EGFR; 72 h viability assay, CellTiterGlo; mean of 3 ± SEM; read-out: IC50 (inhibition of cellular proliferation)
Procedure: Cells were plated at a density of between 500 to 5000 cells per well for adherent cell lines depending on doubling time, and 15,000 cells per well for lymphoblastic leukemia cell lines, in a 96-well plate in 200 μl of growth media. Plates were incubated overnight at 37 °C before adding the inhibitors. Inhibitors were serially diluted from the stock solutions in complete medium and added to the cells. […] Cell viability was assessed by the AlamarBlue (Invitrogen) or CellTiterBlue/Glo (Promega) method according to manufacturer’s instructions. The curve fits and IC50 values were generated in PRISM (GraphPad, San Diego, CA).

MH792 LUSC PDX = assay: LUSC PDX model MH792; type: in vivo, NOD-SCID-IL2Rγc–/– mice
Procedure: LUSC PDXs were generated as described in[25]. PDXs at passage 4 were defrosted and washed with PBS before counting. 200,000 to 500,000 cells were then injected in a 50:50 PBS:Matrigel mix into the flanks of NOD-SCID-IL2Rγc–/– male mice. Tumors were measured twice weekly with calipers and treatment started when tumors were between 70–120 mm^3. Mice were assigned to treatment groups based on average tumor volume per group. Mice were culled when tumors reached a volume of 600 mm^3.

For `COc1ccc(CNc2nc(NCc3ccc(CN)cc3)nc(NN3CC(=O)NC3=O)n2)cc1` [WEHI-7326], the EC50 (MDA-MB-231) was 19 ± 2.2 nM, the IC50 (U87MGΔ2–7) was 6.1 ± 1.6 nM and the “Adverse effects in treatment arm” value (MH792 LUSC PDX; MH792 PDX mice, 20 mg/kg i.v. twice a week, n = 8–10) was 1 with hind limb paralysis after 4 weeks of treatment. It also gave a Median survival (MH792 LUSC PDX; MH792 PDX, WEHI-7326 20 mg/kg i.v. biweekly, docetaxel 10 mg/kg i.p. once) of 34 days.
